{"source": "patent US9532519B2", "about": "“Plant growth regulator and use thereof” (Japan Science and Technology Agency, priority 2006, dated 2017)", "key": {"[1]": {"tested_on": "Arabidopsis", "conditions": "in vivo"}, "[2]": {"tested_on": "Rose (breed; Patiohit alicante)", "assay": "Influence of oxidized glutathione on growth of rose (Patiohit alicante)", "type": "in vivo", "conditions": "50 mL of 0.5 mM-GSSG two times a week for four months, then pruned", "procedure": "Rose (breed; Patiohit alicante) was fertilized with 50 mL of 0.5 mM-GSSG solution two times a week for four months and then pruned completely and cultivated."}, "[3]": {"tested_on": "Sweet corn", "assay": "Effect 3 of oxidized glutathione on productivity of corn (foliar spray)", "type": "in vivo", "conditions": "GSSG sprayed to a stem and leaves four times in two weeks after six weeks from the sowing", "procedure": "(§1) Sweet corn was cultivated under the same conditions as those of <15.\nThe amount of fruits and the amount of biomass of ground parts of the plant thus obtained were measured with respect to each plant and harvest index was calculated."}, "[4]": {"tested_on": "Sweet corn", "assay": "Effect 4 of oxidized glutathione on productivity of corn (method and time of treatment)", "type": "in vivo", "conditions": "20 mL of 0.2 mM-GSSG each time, to roots or sprayed to stem and leaves; any of the treatment times", "procedure": "as §1\nHarvest index of the plant thus obtained was measured."}, "[5]": {"tested_on": "transformants of Arabidopsis to which the gFBA gene was introduced and wild-type Arabidopsis (Columbia; Col)", "assay": "Influence 3 of oxidized glutathione on gFBA transformant Arabidopsis (GSSG only, 0 mM to 5 mM)", "type": "in vivo", "conditions": "only GSSG as liquid fertilizer", "from_the_text": "This tendency was more clearly observed in the transformants of Arabidopsis to which the gFBA gene was introduced."}}}
{"substance": "oxidized glutathione [GSSG]", "values": [{"measurement": "seed weight per one pod vs not treated", "setting": "[1]", "result": "significantly increased the seed weight"}, {"measurement": "growth of new floral buds vs not treated", "setting": "[2]", "result": "significant promotion of growth of new floral buds"}, {"measurement": "amount of fruits, amount of biomass of ground parts and harvest index of each plant", "setting": "[3]", "result": "increased the amount of fruits, the amount of biomass of ground parts, and the harvest index"}, {"measurement": "harvest index vs not treated", "setting": "[4]", "result": "significantly increased"}, {"measurement": "effects of increasing seed weight and harvest index compared with ammonium nitrate", "setting": "[5]", "result": "greatly larger than the maximum effects yielded by fertilization with nitrogen resulting from ammonium nitrate"}, {"measurement": "concentration of GSSG at which the effect on harvest index was saturated", "setting": "[5]; 0 mM to 5 mM", "result": "approximately 2 mM"}, {"measurement": "seed weight as function of GSSG concentration", "setting": "[5]; 0 mM to 5 mM", "result": "increased as concentration of GSSG increased, and the effect was not saturated at the tested concentration"}]}
